Experimental data as given in patent publication US7314858B2, “Retrocyclins: antiviral and antimicrobial peptides” (priority 2001, dated 2008).
pKd: −log10 of the molar value. “Also recorded” adds a separate entry of the source. Like-named read-outs stand apart in the source and are kept apart here. Where a SMILES comes first, the peptide text is derived from it. Bridges are numbered along the chain shown (N, C = ends).

Tests used:
gp120 (BaL) = assay: Surface plasmon resonance binding; set-up: species or system HIV-1; conditions: immobilized gp120(BaL)
From the text: Surface plasmon resonance. Recombinant human soluble CD4 (full-length 45 kDa glycosylated ectodomain) was produced by ExpresSF+S. frugiperda cells in serum-free medium (Protein Sciences Corporation, Meriden, Conn.). Glycosylated HIV-1 gp120 (LAV) envelope glycoprotein (Catalog No. 2003-LAV) was purchased from the same source. Recombinant HIV-1BaL was obtained through the AIDS Research and Reference Reagent Program, Division of AIDS, National Institute of Allergy and Infectious Disease, NIH.
Surface plasmon resonance (SPR) experiments were done with a Biacore 2000 system (Biacore, Inc., Piscataway, N.J.). The running buffer (pH 7.4) contained 10 mM HEPES, 150 mM NaCl, 3 mM EDTA and 0.005% polysorbate 20. The immobilized proteins (gp120-LAV and CD4) were dissolved at 20 μg/ml in 10 mM sodium acetate, pH 5.0 and immobilized on a Biacore CM5 sensor chip using the amine coupling method. The chip was activated by mixing 400 mM EDC (N-ethyl-N-(3-dimethylaminopropyl)-carbodiimide hydrochloride) and 100 mM N-hydroxysuccinimide. […] Residual reactive groups on the chip surface were blocked using 1.0 Methanolamine/HCl, pH 8.5.
The flow cell chip used as a control lacked immobilized protein but was otherwise treated as above. Signals were corrected for nonspecific binding by subtracting the control signal. To regenerate the chip surface, bound ligands were removed with 10 mM HCl. Data were analyzed with BIAevaluation 3.1 software. Curve fitting was done with an assumption of 1:1 binding.
In those experiments, biosensor chips containing immobilized gp120 or CD4 were perfused with a 1 μg/ml solution of the peptides, and binding was measured by surface plasmon resonance. […] No binding studies were performed with gp120 preparations derived from non-B HIV-1 subtypes.

HSV-2 = assay: HSV inactivation microplate assay on ME-180 cells (MTT); assay type: cell-based; conditions: 2-50 μg/ml, 2 hrs with virus, 72 hrs culture
Experimental: FIG. 14. Inactivation of HSV-1 and HSV-2 by retrocyclin and RC-101. Retrocyclin (left panel) and RC-101 (right panel) at the indicated concentrations were incubated with herpes simplex virus, type 1 (HSV-1) or HSV-2 for 2 hrs and then added to ME-180 cell monolayers. Cells were incubated at 37° C. for 72 hrs, and cytotoxicity was measured with an MTT kit.
Some retrocyclins are slightly active against herpes simplex virus (HSV). To determine if the activity of retrocyclin against HIV-1 was specific or representative of a more global antiviral effect, it was tested its ability to prevent HSV infection in vitro. A quantitative microplate assay was used to screen retrocyclin and retrocyclin-congeners for their ability to inactivate HSV type 1 (HSV-1) and HSV-2. The assay utilized small amounts of peptide and simultaneously evaluated for peptide-induced cytotoxicity. In brief, final peptide concentrations of 2-50 μg/ml were incubated with virus stocks for 2 hrs and added directly to ME-180 human cervical carcinoma cells. Cultures were incubated at 37° C. for 72 hrs and cytotoxicity was measured using a 3-(4,5-dimethylthiazon-2-yl)-2,5-diphenyltetrazolium bromide (MTT) cell proliferation kit (Boehringer-Mannheim, Germany). Calculations to assess antiviral activity and compute “percent protection” are delineated in (90).

human red blood cells = assay: Hemagglutination of washed red blood cells in PBS; conditions: washed human red blood cells in PBS
Experimental: Hemagglutination was tested by adding the stated concentration of peptide to a well comprising red blood cells (shown in FIG. 22). When the RBC are agglutinated, they clump together and settle rapidly and form a diffuse circle covering much of the bottom of the well. In the absence of agglutination, they settle more slowly and form a compact red button in the center of the well.
Sequences of retrocyclin-related peptides that were synthesized and either tested for activity against HIV-1 (see FIGS. 21A and 21B) and/or for their ability to cause human red blood cells to hemagglutinate or both. NT signifies not tested. Linear sequences appear in the table, but all peptides were cyclic and contained three intramolecular disulfide bonds. Hemagglutination of washed human red blood cells was tested in PBS, at peptide concentrations of 50, 25, 12.5 6.25 and 3.12 μg/ml. The lowest concentrations that caused hemagglutination are shown. Peptide concentrations were determined by amino acid analysis or by AUC (area under the curve) RP-HPLC analysis with reference to amino-acid analyzed standards.

HIV-1 strain JR-CSF = assay: HIV proviral DNA formation, quantitative real time PCR in CD4+-selected PBMC; assay type: cell-based; conditions: 20 μg/ml, MOI 0.1
From the text: FIG. 13. Retrocyclin and RC-101 inhibited the formation of HIV proviral DNA. Retrocyclin and RC-101 inhibited the formation of DNA from both early events (total HIV DNA) and later events (full-length HIV DNA) of reverse transcription. Data are an average of 2 experiments, except for RC-101 (1 experiment). “HI virus” is a heat-inactivated virus control for background levels of viral DNA.
Retrocyclin inhibits HIV replication at an early step (reverse transcription or before). To determine whether retrocyclin blocked the formation of proviral DNA in HIV-JR-CSF-inoculated CD4^+-selected PBMC, quantitative real time PCR was performed. This method is more sensitive than measuring p24 release and can detect infection even when p24 values may be affected by virus carried over from the original inoculum. CD4^+-selected PBMC (10^6 cells) were incubated in 250 μl at 37° C./5% CO2 for 3 hr with either HIV-1 strain JR-CSF (MOI=0.1), heat-inactivated virus (background control), JR-CSF+20 μg/ml retrocyclin or JR-CSF+20 μg RC-101. Cells were washed and resuspended in 1 ml R10-50 media, and incubated for an additional 9 hours. Following incubation, cells were pelleted at 300×g, removed of overlying supernatant, and stored at −80° C. until analyzed by real time PCR.

CD4+ PBMC = conditions: for average number of cells: 20 μg/ml peptide, CD4+ PBMC; for cytotoxicity (trypan blue exclusion): 20 μg/ml, HIV-1-infected CD4+ PBMC
H9 cells = assay: Cytotoxicity by trypan blue exclusion; conditions: for cytotoxicity (trypan blue exclusion): 20 μg/ml, HIV-1-infected H9 cells

CC[C@H](C)[C@@H]1NC(=O)CNC(=O)[C@H](CCCNC(=N)N)NC(=O)CNC(=O)[C@@H]2CSSC[C@H](NC1=O)C(=O)N[C@@H](CCCNC(=N)N)C(=O)N[C@H]1CSSC[C@H](NC(=O)[C@H](CCCNC(=N)N)NC(=O)[C@@H]3CSSC[C@H](NC(=O)[C@H]([C@@H](C)CC)NC1=O)C(=O)NCC(=O)N[C@@H](CCCNC(=N)N)C(=O)NCC(=O)N[C@@H]([C@@H](C)CC)C(=O)N3)C(=O)N[C@@H]([C@@H](C)CC)C(=O)N2 [RC-100, Retrocyclin] (cyclo(GICRCICGRGICRCICGR); disulfide 3-16, 5-14, 7-12)
pKd (gp120 (BaL)): 7.53
koff (gp120 (BaL)): 4.12 × 10^−3
kon (gp120 (BaL)): 14.1 × 10^4
protection against HSV-2 (HSV-2): modest protection
Hemagglutination seen at a concentration of (lowest concentration that caused hemagglutination) (human red blood cells): 6 to 12.5 µg/mL
formation of HIV-1 proviral DNA (HIV-1 strain JR-CSF): inhibited the formation of HIV-1 proviral DNA
average number of cells (CD4+ PBMC; IIIB): 1.68e+06 mL⁻¹
average number of cells (CD4+ PBMC; JR-CSF): 1.58e+06 mL⁻¹
average number of cells (CD4+ PBMC; no virus): 980000 mL⁻¹
cytotoxicity (trypan blue exclusion) (CD4+ PBMC): neither 20 μg/ml retrocyclin nor RC-101 were cytotoxic
average number of cells (H9 cells; 20 μg/ml peptide, H9, IIIB): 1.2e+06 mL⁻¹
cytotoxicity (trypan blue exclusion) (H9 cells): neither 20 μg/ml retrocyclin nor RC-101 were cytotoxic

CC[C@H](C)[C@@H]1NC(=O)CNC(=O)[C@H](CCCCN)NC(=O)CNC(=O)[C@@H]2CSSC[C@H](NC1=O)C(=O)N[C@@H](CCCNC(=N)N)C(=O)N[C@H]1CSSC[C@H](NC(=O)[C@H](CCCNC(=N)N)NC(=O)[C@@H]3CSSC[C@H](NC(=O)[C@H]([C@@H](C)CC)NC1=O)C(=O)NCC(=O)N[C@@H](CCCNC(=N)N)C(=O)NCC(=O)N[C@@H]([C@@H](C)CC)C(=O)N3)C(=O)N[C@@H]([C@@H](C)CC)C(=O)N2 [RC-101, R9K-Retrocyclin]
pKd (gp120 (BaL)): 7.69
koff (gp120 (BaL)): 5.55 × 10^−3
kon (gp120 (BaL)): 27.0 × 10^4
protection against HSV-2 (HSV-2): nearly completely protective
Hemagglutination seen at a concentration of (lowest concentration that caused hemagglutination) (human red blood cells): > 200 µg/mL
hemagglutination compared with retrocyclin (human red blood cells): much less hemagglutination than retrocyclin; also recorded: less hemagglutination than retrocyclin-1 or retrocyclin-2
formation of HIV-1 proviral DNA (HIV-1 strain JR-CSF): inhibited the formation of HIV-1 proviral DNA
cytotoxicity (trypan blue exclusion) (CD4+ PBMC): neither 20 μg/ml retrocyclin nor RC-101 were cytotoxic
cytotoxicity (trypan blue exclusion) (H9 cells): neither 20 μg/ml retrocyclin nor RC-101 were cytotoxic
